# Marks after values point to notes of the source that are not given here.
# Legend:
# E Coli DH 5α = assay: Liquid culture growth inhibition (optical density), E. Coli; type: cell-based; conditions: for Optical Density at 680 nm, measurements taken after 24 hours of growth: E. Coli, M9 minimum medium, 30 mM herbicide, control 1.30; for Toxicity towards E. Coli (liquid culture): inhibition only during first 10 hours, beyond 24 hours optical density matched controls
# Protocol: (§1) Strains of green algae, cyanobacteria and E. Coli were used as test organisms. The green algae CD 1 Red and cyanobacteria Synechocystos 6803 were obtained from the collection of Prof. George Bullerjahn. Salt water strain of cyanobacteria Synechococcus 7002 was obtained from the collection of Prof. Michael McKay. E Coli DH 5α was obtained from Invitrogen Inc.
# E. Coli was propagated heterotrophically in a 2 mL Eppendorf test-tube containing 1.5 mL of liquid M9 minimum medium (see Supporting Information) and kept on a rotating shaker (100 rpm) at 37° C. for 12 hours. The grown culture medium was sterilized at 121° C., 1.05 kg cm^−2 for 20 min. For the cell experiments, 100 mL aliquots of the M9 medium containing the E. Coli cells ([cells]initial=6×10^5 mL^−1) were distributed into sterile 250 mL Erlenmeyer flasks and treated with a stock herbicide solution to obtain a final concentration of 30 mM, followed by an incubation for 24 h on a rotating shaker (100 rpm) at 37° C. […] Control and treated cultures were grown under the same conditions of temperature and shaking. In each experiment, the inhibition of growth in treated cultures was monitored spectrophotometrically and compared to the growth in control samples.
# [1] = tested on: natural freshwater biofouling organisms (periphyton); assay: Field trial: periphyton biofouling on coated tiles in artificial stream (chlorophyll extraction); conditions: for Extracted chl (periphyton chl biomass) per tile: 459S2 coating with 0.15 M herbicide on ceramic tiles, 10 days in flow channels, bare tiles 11.1±2.87, blank resin 9.35±1.07
# Protocol: Field tests were conducted during July and August, 2006 at the University of Michigan Biological Station Experimental Stream Laboratory located near Douglas Lake, Pellston, Mich. Resin 459S2 containing 0.15 M of a designated herbicide was coated on terracotta ceramic tiles (3×6 inches) pretreated with silanes for improved adhesion and photocured by an H-bulb system obtained from Fusion Inc. The coating thickness was 12.5 μm (0.5 mil). Bare tiles and tiles coated with 459S2 containing no additive were used as controls. Nine tiles for each series were placed into separate flow channels with a constant water flow of 3 L min^−1 for each channel. Each flow channel utilized water pumped from the East Branch of the Maple River containing natural freshwater biofouling organisms. Each flow channel was covered with a mesh screen to reduce direct light exposure and to ensure more favorable growth conditions. Tiles were left in the flow channels for 10 days.
# Chlorophyll (chl) biomass attached to the surface of each tile was determined after the tiles had been washed three times with tap water to remove mud and other loosely attached species. The coated surface of the tile was submerged into a plastic vessel containing 25 mL of 90/10 acetone/saturated aqueous MgCl2. The container itself was placed into an ultrasonic bath and the entire system was sonicated for 30 seconds to facilitate chl extraction. The UV-vis spectrum of each extract was measured on a Shimadzu diode-array spectrophotometer using a 1 cm quartz cell. The amount of chl was determined using the following equation:^29
# where Aλ1-λ2 is the difference in absorbance at two designated wavelengths and l is the spectroscopic cell pathlength. Two independent field trials were conducted.
# Solubility (qualitative) = type: physicochemical
# green algae CD 1 Red [2] = assay: Liquid culture growth inhibition (optical density), green algae; type: cell-based; conditions: CD1 Red, BG-11 liquid medium, 1 mM herbicide, control 0.55
# Protocol: as §1
# Green algae and cyanobacteria were propagated photoautotrophically in 250 mL Erlenmeyer flasks containing 100 mL of liquid BG-11 culture medium (see Supporting Information). The cultures were kept on a rotating shaker (100 rpm) at 25° C. for 4 days and continuously illuminated with cool-white fluorescent light with a constant light intensity of 5000 lux. The grown culture medium was sterilized in an autoclave at 121° C. and 1.05 kg cm^−2 pressure for 20 min. For the cell experiments, 20 mL aliquots of the BG-11 medium containing the green algal ([cells]initial=5.9×10^7 mL^−1) or cyanobacteria cells ([cells]initial=1.7×10^9 mL^−1) were placed in sterile 50 mL Erlenmeyer flasks. […] Cell counts were correlated with the absorbance and measured as a function of time using a Spectronic 20 Genesis spectrophotometer. […] In each experiment, the inhibition of cell growth in treated cultures was monitored spectrophotometrically and compared to the growth in control samples.
# [3] = tested on: cyanobacteria Synechocystos 6803; type: cell-based; conditions: Synechocystos 6803, BG-11 agar, 1 mM herbicide; homopolymer as film cast in Petri dish
# Protocol: (§2) BG-11 medium containing 1.5 wt. % agar was prepared and sterilized at 121° C., 1.05 kg cm^−2 for 20 minutes. Each herbicide tested was prepared as a 30 mM solution and added to the autoclaved agar medium to yield a 1 mM final concentration of the herbicide. A 20 mL aliquot of the liquid agar was transferred into a standard Petri dish (100×15 mm) and allowed to harden at room temperature. Cell suspensions of green algae CD 1 Red, cyanobacteria Synechocystos 6803 and Synechococcus 7002 were inoculated using a sterile inoculation loop. Dishes were stored at 25° C. under illumination with the cool-white fluorescent light having a constant light intensity of 5000 lx. The experiment for each herbicide was repeated five times. Control and treated cultures grew under the same conditions of temperature and photoperiod. In each experiment, the inhibition of growth in treated cultures was monitored relative to the growth in control samples using qualitative visual observation.
# (§3) Additional experiments for testing the toxicity of the homopolymer of AA were implemented. Ten mL of aqueous polymer solution was placed on a sterile Petri dish and left at room temperature until all water was evaporated (3 days) to form a thin polymer film. Twenty mL of the liquid agar was transferred into the Petri dish and allowed to harden at room temperature. Cell suspensions of green algae CD 1 Red, cyanobacteria Synechocystos 6803 and Synechococcus 7002 were inoculated using a sterile inoculation loop. An analogous system containing no polymer film was used as a control for the experiment. Inhibition of growth in treated cultures was monitored relative to the growth in control samples using qualitative visual observations.
# [4] = tested on: cyanobacteria Synechococcus 7002; type: cell-based; conditions: Synechococcus 7002, BG-11 agar, 1 mM herbicide; homopolymer as film cast in Petri dish
# Protocol: as §2, §3
# green algae CD 1 Red [5] = type: cell-based; conditions: BG-11 agar, 1 mM herbicide, homopolymer as film cast in Petri dish
# Protocol: as §2, §3
SMILES,"Optical Density at 680 nm, measurements taken after 24 hours of growth (E Coli DH 5α)",Toxicity towards E. Coli (liquid culture) (E Coli DH 5α),Extracted chl (periphyton chl biomass) per tile [1] [μg tile^−1],"Periphyton chl relative to tiles containing unfunctionalized glyphosate ([1]; 459S2 coating with 0.15 M herbicide, 10 days, unpaired two-tailed t-test, P<0.05)",Solubility in organic solvents (Solubility (qualitative)),Solubility in water (Solubility (qualitative)),Optical Density at 680 nm after 7 days of media growth (green algae CD 1 Red [2]),Growth on agar plates compared to control (visual) [3],Growth on agar plates compared to control (visual) [4],Growth on agar plates compared to control (visual) (green algae CD 1 Red [5])
"C=CC(=O)N(CC(=O)O)CP(=O)(O)O [AA, N-Acryloyl-N-(phosphonomethyl)glycine]",1.24^c,do not display reasonable toxicity,7.92±1.12,roughly one-third,poorly soluble in most organic solvents,soluble in water,0.02,complete inhibition of growth and bleaching,complete inhibition of growth and bleaching,complete inhibition of growth and bleaching
"O=C(O)CNCP(=O)(O)O [Glyphosate, N-(Phosphonomethyl)glycine, reference compound]",1.20^c,do not display reasonable toxicity,11.9±2.56,,poor solubility in organic solvents,,0.02,complete inhibition of growth and bleaching,complete inhibition of growth and bleaching,complete inhibition of growth and bleaching

# — patent US20080317700A1 (priority 2006, published 2008)
